Patent publication US20020055639A1, “Pyrazole derivatives as herbicides” (priority 1997, published 2002)

Columns and labels:
Assay type in all cases: in vivo
Design in all cases: key: 1=total damage; 9=no action; Ratings of from 1 to 4 (especially from 1 to 3) indicate good to very good herbicidal action
[1] = system: Stellaria; assay: Pre-emergence herbicidal action (Example B1); conditions: 2000 g a.i./ha, sprayed immediately after sowing, evaluated after 3 weeks, scale of nine ratings
Method: (§1) Monocotyledonous and dicotyledonous test plants are sown in standard soil in plastics pots. Immediately after sowing, the test compounds, each in the form of an aqueous suspension or emulsion prepared from a 25% emulsifiable concentrate (Example F1, c) in WO 97/34485, pages 9 and 10), are applied by spraying at a rate of application of 2000 g of active ingredient/ha (500 liters water/ha). The test plants are then grown in a greenhouse under optimum conditions. After 3 weeks' test duration, the test is evaluated in accordance with a scale of nine ratings (1=total damage, 9=no action). Ratings of from 1 to 4 (especially from 1 to 3) indicate good to very good herbicidal action.
(§2) Test plants: Avena, Setaria, Sinapis, Stellaria

[2] = system: Setaria; assay: Pre-emergence herbicidal action (Example B1); conditions: 2000 g a.i./ha, sprayed immediately after sowing, evaluated after 3 weeks, scale of nine ratings
Method: as §1, §2

[3] = system: Avena; assay: Pre-emergence herbicidal action (Example B1); conditions: 2000 g a.i./ha, sprayed immediately after sowing, evaluated after 3 weeks, scale of nine ratings
Method: as §1, §2

[4] = system: Sinapis; assay: Pre-emergence herbicidal action (Example B1); conditions: 2000 g a.i./ha, sprayed immediately after sowing, evaluated after 3 weeks, scale of nine ratings
Method: as §1, §2

[5] = system: Stellaria; assay: Post-emergence herbicidal action (Example B2); conditions: 2000 g a.i./ha, sprayed at 4- to 6-leaf stage, evaluated after approximately 18 days, scale of nine ratings
Method: (§3) Monocotyledonous and dicotyledonous test plants are grown in a greenhouse in plastics pots containing standard soil and at the 4- to 6-leaf stage are sprayed with an aqueous suspension or emulsion of the test substances of formula I, prepared from a 25% emulsifiable concentrate (Example F1, c) in WO 97/34485, pages 9 and 10), at a rate of application corresponding to 2000 g of active ingredient/ha (500 liters water/ha). The test plants are then grown on in the greenhouse under optimum conditions. After approximately 18 days' test duration, the test is evaluated in accordance with a scale of nine ratings (1=total damage, 9=no action). Ratings of from 1 to 4 (especially from 1 to 3) indicate good to very good herbicidal action.
as §2

[6] = system: Setaria; assay: Post-emergence herbicidal action (Example B2); conditions: 2000 g a.i./ha, sprayed at 4- to 6-leaf stage, evaluated after approximately 18 days, scale of nine ratings
Method: as §3, §2

[7] = system: Avena; assay: Post-emergence herbicidal action (Example B2); conditions: 2000 g a.i./ha, sprayed at 4- to 6-leaf stage, evaluated after approximately 18 days, scale of nine ratings
Method: as §3, §2

[8] = system: Sinapis; assay: Post-emergence herbicidal action (Example B2); conditions: 2000 g a.i./ha, sprayed at 4- to 6-leaf stage, evaluated after approximately 18 days, scale of nine ratings
Method: as §3, §2

Structure (SMILES): Cn1nc(-c2c(F)cc(Cl)c(=O)n2C)c(Cl)c1C(F)(F)F [Example 9.002]
- Pre-emergence action: Stellaria (rating) [1]: 1
- Pre-emergence action: Setaria (rating) [2]: 3
- Pre-emergence action: Avena (rating) [3]: 1
- Pre-emergence action: Sinapis (rating) [4]: 1
- Post-emergence action: Stellaria (rating) [5]: 1
- Post-emergence action: Setaria (rating) [6]: 3
- Post-emergence action: Avena (rating) [7]: 1
- Post-emergence action: Sinapis (rating) [8]: 1

Structure (SMILES): CCCCn1c(-c2nn(C)c(OC(F)F)c2Cl)c(F)cc(Cl)c1=O [Example 1.010]
- Pre-emergence action: Stellaria (rating) [1]: 1
- Pre-emergence action: Setaria (rating) [2]: 1
- Pre-emergence action: Avena (rating) [3]: 1
- Pre-emergence action: Sinapis (rating) [4]: 1
- Post-emergence action: Stellaria (rating) [5]: 1
- Post-emergence action: Setaria (rating) [6]: 1
- Post-emergence action: Avena (rating) [7]: 1
- Post-emergence action: Sinapis (rating) [8]: 1

Structure (SMILES): CCOC(=O)CCCn1c(-c2nn(C)c(OC(F)F)c2Cl)c(F)cc(Cl)c1=O [Example 1.205]
- Pre-emergence action: Stellaria (rating) [1]: 1
- Pre-emergence action: Setaria (rating) [2]: 1
- Pre-emergence action: Avena (rating) [3]: 1
- Pre-emergence action: Sinapis (rating) [4]: 1
- Post-emergence action: Stellaria (rating) [5]: 1
- Post-emergence action: Setaria (rating) [6]: 1
- Post-emergence action: Avena (rating) [7]: 1
- Post-emergence action: Sinapis (rating) [8]: 1

Structure (SMILES): CSCn1c(-c2nn(C)c(OC(F)F)c2Cl)c(F)cc(Cl)c1=O [Example 1.147]
- Pre-emergence action: Stellaria (rating) [1]: 1
- Pre-emergence action: Setaria (rating) [2]: 1
- Pre-emergence action: Avena (rating) [3]: 1
- Pre-emergence action: Sinapis (rating) [4]: 1
- Post-emergence action: Stellaria (rating) [5]: 1
- Post-emergence action: Setaria (rating) [6]: 1
- Post-emergence action: Avena (rating) [7]: 1
- Post-emergence action: Sinapis (rating) [8]: 1

Structure (SMILES): Cn1nc(-c2ccc(Cl)c(=O)n2C)c(Cl)c1OC(F)F [Example 1.001]
- Pre-emergence action: Stellaria (rating) [1]: 1
- Pre-emergence action: Setaria (rating) [2]: 1
- Pre-emergence action: Avena (rating) [3]: 1
- Pre-emergence action: Sinapis (rating) [4]: 1
- Post-emergence action: Stellaria (rating) [5]: 1
- Post-emergence action: Setaria (rating) [6]: 1
- Post-emergence action: Avena (rating) [7]: 1
- Post-emergence action: Sinapis (rating) [8]: 1

Structure (SMILES): Cn1nc(-c2c(F)cc(Cl)c(=O)n2C[S+](C)[O-])c(Cl)c1OC(F)F (stereo not shown) [Example 1.150]
- Pre-emergence action: Stellaria (rating) [1]: 1
- Pre-emergence action: Setaria (rating) [2]: 1
- Pre-emergence action: Avena (rating) [3]: 1
- Pre-emergence action: Sinapis (rating) [4]: 1
- Post-emergence action: Stellaria (rating) [5]: 1
- Post-emergence action: Setaria (rating) [6]: 1
- Post-emergence action: Avena (rating) [7]: 1
- Post-emergence action: Sinapis (rating) [8]: 1

Structure (SMILES): COn1c(-c2nn(C)c(OC(F)F)c2Cl)c(F)cc(Cl)c1=O [Example 1.400]
- Pre-emergence action: Stellaria (rating) [1]: 1
- Pre-emergence action: Setaria (rating) [2]: 1
- Pre-emergence action: Avena (rating) [3]: 1
- Pre-emergence action: Sinapis (rating) [4]: 1
- Post-emergence action: Stellaria (rating) [5]: 1
- Post-emergence action: Setaria (rating) [6]: 2
- Post-emergence action: Avena (rating) [7]: 1
- Post-emergence action: Sinapis (rating) [8]: 1

Structure (SMILES): CCC(=O)Cn1c(-c2nn(C)c(OC(F)F)c2Cl)c(F)cc(Cl)c1=O [Example 1.302]
- Pre-emergence action: Stellaria (rating) [1]: 1
- Pre-emergence action: Setaria (rating) [2]: 1
- Pre-emergence action: Avena (rating) [3]: 1
- Pre-emergence action: Sinapis (rating) [4]: 1
- Post-emergence action: Stellaria (rating) [5]: 1
- Post-emergence action: Setaria (rating) [6]: 1
- Post-emergence action: Avena (rating) [7]: 1
- Post-emergence action: Sinapis (rating) [8]: 1
